Target: T1, Aurora B (Homo sapiens, UniProt Q96GD4)
T1 construct: cell lysates from Jurkat cells (ATCC TIB-152) used; endogenous in cells; host or cells: Jurkat cells (ATCC TIB-152), treated with pervanadate
Experiment: Kinobeads assay, Aurora B
Format: binding
Settings: for IC50: lysate of pervanadate-treated Jurkat cells, read-out: Inhibition values (IC50) Aur B
Experimental: The compounds of the present invention as described in the previous examples were tested in a Kinobeads™ assay as described for ZAP-70 (WO-A 2007/137867). Briefly, test compounds (at various concentrations) and the affinity matrix with the immobilized aminopyrido-pyrimidine ligand 24 were added to cell lysate aliquots and allowed to bind to the proteins in the lysate sample. After the incubation time the beads with captured proteins were separated from the lysate. Bound proteins were then eluted and the presence of JAK2 and JAK3 was detected and quantified using specific antibodies in a dot blot procedure and the Odyssey infrared detection system. Dose response curves for individual kinases were generated and IC50 values calculated. Kinobeads™ assays for ZAP-70 (WO-A 2007/137867) and for kinase selectivity profiling (WO-A 2006/134056) have been previously described.
The affinity matrix was washed two times with 15 mL of 1×DP buffer containing 0.2% NP40 (IGEPAL® CA-630, Sigma, #I3021) and then resuspended in 1×DP buffer containing 0.2% NP40 (3% beads slurry).
5×DP buffer 250 mM Tris-HCl pH 7.4, 25% Glycerol, 7.5 mM MgCl2, 750 mM NaCl, 5 mM Na3VO4; filter the 5×DP buffer through a 0.22 μm filter and store in aliquots at −80° C. The 5×DP buffer is diluted with H2O to 1×DP buffer containing 1 mM DTT and 25 mM NaF.
Stock solutions of test compounds were prepared in DMSO. In a 96 well plate 30 μL solution of diluted test compounds at 5 mM in DMSO were prepared. Starting with this solution a 1:3 dilution series (9 steps) was prepared. For control experiments (no test compound) a buffer containing 2% DMSO was used.
Cell lysate (approximately 50 mg protein per plate) was thawed in a water bath at room temperature and then stored on ice. To the thawed cell lysate 1×DP 0.8% NP40 buffer containing protease inhibitors (1 tablet for 25 mL buffer; EDTA-free protease inhibitor cocktail; Roche Diagnostics 1873580) was added in order to reach a final protein concentration of 10 mg/mL total protein. The diluted cell lysate was stored on ice. Mixed Molt4/Ramos lysate was prepared by combining one volume of Molt4 lysate and two volumes of Ramos lysate (ratio 1:2).
To a 96 well filter plate (Multiscreen HTS, BV Filter Plates, Millipore #MSBVN1250) were added per well: 100 μL affinity matrix (3% beads slurry), 3 μL of compound solution, and 50 μL of diluted lysate. Plates were sealed and incubated for 3 hours in a cold room on a plate shaker (Heidolph tiramax 1000) at 750 rpm. Afterwards the plate was washed 3 times with 230 μL washing buffer (1×DP 0.4% NP40). The filter plate was placed on top of a collection 1 plate (Greiner bio-one, PP-microplate 96 well V-shape, 65120) and the beads were then eluted with 20 μL of sample buffer (100 mM Tris, pH 7.4, 4% SDS, 0.00025% bromophenol blue, 20% glycerol, 50 mM DTT). The eluate was frozen quickly at −80° C. and stored at −20° C.
The kinases in the eluates were detected and quantified by spotting on nitrocellulose membranes and using a first antibody directed against the kinase of interest and a fluorescently labelled secondary antibody (anti-rabbit IRDye™ antibody 800 (Licor, #926-32211). The Odyssey Infrared Imaging system from LI-COR Biosciences (Lincoln, Nebr., USA) was operated according to instructions provided by the manufacturer (Schutz-Geschwendener et al, 2004. Quantitative, two-color Western blot detection with infrared fluorescence. Published May 2004 by LI-COR Biosciences, www.licor.com).
After spotting of the eluates the nitrocellulose membrane (BioTrace NT; PALL, #BTNT30R) was first blocked by incubation with Odyssey blocking buffer (LICOR, 927-40000) for 1 hour at room temperature. Blocked membranes were then incubated for 16 hours at the temperature shown in Table 5 with the first antibody diluted in Odyssey blocking buffer (LICOR #927-40000). Afterwards the membrane was washed twice for 10 minutes with PBS buffer containing 0.2% Tween 20 at room temperature. […]

T1 sequence (Q96GD4 whole entry): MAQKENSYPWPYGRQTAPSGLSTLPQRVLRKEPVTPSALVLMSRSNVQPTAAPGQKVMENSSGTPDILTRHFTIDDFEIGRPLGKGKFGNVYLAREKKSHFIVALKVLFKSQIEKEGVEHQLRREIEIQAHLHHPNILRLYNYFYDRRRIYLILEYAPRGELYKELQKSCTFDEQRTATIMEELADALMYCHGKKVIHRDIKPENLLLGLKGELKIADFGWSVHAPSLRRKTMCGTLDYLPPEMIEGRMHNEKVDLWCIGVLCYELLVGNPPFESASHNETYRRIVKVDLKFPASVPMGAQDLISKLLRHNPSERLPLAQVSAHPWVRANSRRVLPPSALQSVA

| Compound | JAK3/AurB Fold Selectivity | IC50 [nM] |
| --- | --- | --- |
| O=C(c1cc(F)c(F)c(Cn2ncc3cnc(Nc4cnn(CCO)c4)nc32)c1F)N1CCOCC1 [Example 111, morpholino(2,4,5-trifluoro-3-((6-((1-(2-hydroxyethyl)-1H-pyrazol-4-yl)amino)-1H-pyrazolo[3,4-d]pyrimidin-1-yl)methyl)phenyl)methanone] | 10-50 Fold | 100 to 1000 |
| C[C@@H]1COCCN1c1cccc(Cn2ncc3cnc(Nc4cnn(C)c4)nc32)c1 [Example 113, (R)-N-(1-methyl-1H-pyrazol-4-yl)-1-(3-(3-methylmorpholino)benzyl)-1H-pyrazolo[3,4-d]pyrimidin-6-amine] | >50 Fold | 1000 to 10000 |
| CCOC(=O)C1CCCN(c2cccc(Cn3ncc4cnc(Nc5cnn(C)c5)nc43)c2)C1 (stereo not drawn) [Example 13, Ethyl 1-(3-((6-((1-methyl-1H-pyrazol-4-yl)amino)-1H-pyrazolo[3,4-d]pyrimidin-1-yl)methyl)phenyl)piperidine-3-carboxylate] | 10-50 Fold | ≥ 10000 |
| NC(=O)CCn1cc(Nc2ncc3cnn(Cc4cccc(N5CCOCC5)c4)c3n2)cn1 [Example 14, 3-(4-((1-(3-Morpholinobenzyl)-1H-pyrazolo[3,4-d]pyrimidin-6-yl)amino)-1H-pyrazol-1-yl)propanamide] | 10-50 Fold | 100 to 1000 |
| Cn1cc(Nc2ncc3cnn(Cc4cccc(N5CC6CCC(C5)O6)c4)c3n2)cn1 [Example 26] | 10-50 Fold | 1000 to 10000 |
| N#CCCn1cc(Nc2ncc3cnn(Cc4cc(F)cc(N5CCOCC5=O)c4)c3n2)cn1 [Example 107, 3-(4-((1-(3-fluoro-5-(3-oxomorpholino)benzyl)-1H-pyrazolo[3,4-d]pyrimidin-6-yl)amino)-1H-pyrazol-1-yl)propanenitrile] | 10-50 Fold | 100 to 1000 |
| FC(F)Cn1cc(Nc2ncc3cnn(Cc4cccc(N5CCOCC5)c4)c3n2)cn1 [Example 23, N-(1-(2,2-Difluoroethyl)-1H-pyrazol-4-yl)-1-(3-morpholinobenzyl)-1H-pyrazolo[3,4-d]pyrimidin-6-amine] | >50 Fold | 1000 to 10000 |

The next lines start with the values.

| JAK3/AurB Fold Selectivity | IC50 [nM] | Compound |
| --- | --- | --- |
| 10-50 Fold | 100 to 1000 | Cn1cc(Nc2ncc3cnn(Cc4cc(F)cc(N5CCNCC5)c4F)c3n2)cn1 [Example 95, 1-(2,5-difluoro-3-(piperazin-1-yl)benzyl)-N-(1-methyl-1H-pyrazol-4-yl)-1H-pyrazolo[3,4-d]pyrimidin-6-amine] |
| 10-50 Fold | 100 to 1000 | Cn1cc(Nc2ncc3cnn(Cc4cccc(N5CCS(=O)(=O)CC5)c4)c3n2)cn1 [Example 25, 4-(3-((6-((1-Methyl-1H-pyrazol-4-yl)amino)-1H-pyrazolo[3,4-d]pyrimidin-1-yl)methyl)phenyl)thiomorpholine 1,1-dioxide] |
| >50 Fold | 1000 to 10000 | Cn1cc(Nc2ncc3cnn(Cc4cccc(-c5cnn(C)c5)c4)c3n2)cn1 [Example 115, N-(1-methyl-1H-pyrazol-4-yl)-1-(3-(1-methyl-1H-pyrazol-4-yl)benzyl)-1H-pyrazolo[3,4-d]pyrimidin-6-amine] |
| 10-50 Fold | 100 to 1000 | CNC(=O)Cn1cc(Nc2ncc3cnn(Cc4cccc(N5CCOCC5)c4)c3n2)cn1 [Example 12, N-Methyl-2-(4-((1-(3-morpholinobenzyl)-1H-pyrazolo[3,4-d]pyrimidin-6-yl)amino)-1H-pyrazol-1-yl)acetamide] |
| 10-50 Fold | 100 to 1000 | O=C(Cn1cc(Nc2ncc3cnn(Cc4cc(F)cc(N5CCOCC5=O)c4)c3n2)cn1)N1CCNCC1 [Example 109, 4-(3-fluoro-5-((6-((1-(2-oxo-2-(piperazin-1-yl)ethyl)-1H-pyrazol-4-yl)amino)-1H-pyrazolo[3,4-d]pyrimidin-1-yl)methyl)phenyl)morpholin-3-one] |
